In US20080039383A1, “Methods and compositions for inhibiting ER-stress induced cholesterol/triglyceride accumulation” (HAMILTON CIVIC HOSPITAL RESEARCH DEVELOPMENT INC., priority 1999, published 2008):
Entries after “also recorded” stand apart in the source; their conditions may differ.

Key:
[1] = test system: SREBP, HMG-CoA reductase, IPP isomerase (IPPI) and FPP synthase mRNA; assay: Northern blot analysis of cholesterol/triglyceride biosynthesis and uptake gene mRNA in cultured human cells; type: cell-based; conditions: for expression of cholesterol biosynthetic enzymes (Northern analysis): HUVEC and HepG2 cells; for steady-state mRNA levels of IPPI / steady-state mRNA levels of IPPI (IPP isomerase): 4 hours; for steady-state mRNA levels of IPPI: 5 mM amino acid or 2 mM DTT; for steady-state mRNA levels of IPPI (IPP isomerase): homocysteine 5 mM, DTT, β-mercaptoethanol 5 mM, tunicamycin 10 μg/ml, A23187 10 μM; for IPPI mRNA levels: 0-18 hours
Description: (§1) Cell culture and treatment conditions. Primary human umbilical vein endothelial cells (HUVEC) were isolated by collagenase treatment of human umbilical veins (Jaffe, E. A, 1973) and cultured in EC medium (M199 medium, 20 μg/ml endothelial cell growth factor, 90 μg/ml porcine intestinal heparin, 100 μg/ml penicillin and 100 μg/ml streptomycin) containing 20% fetal bovine serum (Hyclone; Logan, Utah) in a humidified incubator at 37° C. with 5% CO2. Cells from passages 2-4 were used in these studies. Human aortic smooth muscle cells (HASMC) were purchased from Cascade Biologicals (Portland, Oreg.) and cultured in M231 media (Cascade Biologicals) containing smooth muscle cell growth supplement (Cascade Biologicals). The human hepatocarcinoma cell line, HepG2, was obtained from the American Type Culture Collection (ATCC; Rockville, Md.) and cultured in A-DMEM containing 10% fetal bovine serum. DL-homocysteine, L-methionine, DL-cysteine, glycine, DL-dithiothreitol ([…]), tunicamycin, A23187 and β-mercaptoethanol were purchased from Sigma (St. Louis, Mo.). These compounds were prepared fresh in culture medium, sterilized by filtration and added to the cell cultures.
(§2) Preparation of Total RNA. […] .

[2] = test system: GRP78/BiP and GADD153 mRNA; assay: Northern blot analysis of ER stress response genes in HepG2 cells; type: cell-based, human; conditions: 4 h, 5 mM amino acids, 2.5 mM DTT, 10 μg/ml tunicamycin
Description: as §1, §2

HASMC [3] = assay: Intracellular total cholesterol in HASMC; type: cell-based, human; conditions: 0-5 mM, 24-48 h
Description: (§3) Lipids are extracted with hexane:isopropanol (3:2), dried and resuspended in hexane. Colorimetric cholesterol assays is carried out using the Sigma Diagnostics Cholesterol Reagent (Sigma) to determine total cholesterol levels. Total plasma cholesterol are measured using the same assay but without the lipid extraction step.
as §1
(§4) Total cholesterol and triglyceride levels.

cultured cells = conditions: cited from earlier work; for overall cell number or viability: extracellular concentrations up to 5 mM
HepG2 cells [4] = assay: Intracellular total cholesterol in HepG2 cells; type: cell-based, human; conditions: HepG2, 0-5 mM, 24-48 h
Description: as §3, §1, §4

HepG2 cells [5] = assay: BODIPY FL LDL binding and uptake in HepG2 cells; type: cell-based, human; conditions: 5 mM homocysteine 8 hr
Description: as §1
(§5) Uptake of BODIPY FL LDL and image analysis. […] Images were subsequently captured and analyzed using Northern Exposure image analysis/archival software (Mississauga, ON).

HUVEC [6] = assay: BODIPY FL LDL / AcLDL binding and uptake in HUVEC; type: cell-based, human
Description: as §1, §5

HUVEC [7] = assay: Intracellular total cholesterol in HUVEC; type: cell-based, human; conditions: 0-5 mM, 24-48 h
Description: as §3
as §1, with “These compounds were prepared fresh in culture medium, sterilized by filtration and added to the cell cultures.” left out

SREBP-2 = assay: Immunoblot of SREBP-2 forms in HepG2 cells; type: cell-based, human; conditions: HepG2 cells (data not shown)
Description: as §1
(§6) Immunoblot analysis. The anti-KDEL mAb (SPA-827), which recognizes both GRP78/BiP and GRP94, was purchased from StressGen Biotechnologies (Victoria, BC). […]

GRP78/BiP and GRP94 = assay: Immunoblot with anti-KDEL mAb in HepG2 cells; type: cell-based, human; conditions: HepG2, 5 mM homocysteine, 8, 18 and 36 h
Description: as §1, §6

SREBP-1 = assay: Immunoblot of SREBP-1 precursor and mature forms in HepG2 cells; type: cell-based, human; conditions: 5 mM homocysteine
Description: as §1, §6

HASMC [8] = assay: BODIPY FL LDL binding and uptake in HASMC; type: cell-based, human
Description: as §1, §5

[9] = HepG2 cells, 5 mM homocysteine, 0-18 h

Compound: O[C@H](CS)[C@H](O)CS (racemic) [DTT, DL-dithiothreitol]
- expression of cholesterol biosynthetic enzymes (Northern analysis) [1]: induce the cholesterol biosynthetic pathway in a manner similar to that of homocysteine
- steady-state mRNA levels of IPPI ([1]; HUVEC): significantly increased IPPI mRNA levels
- steady-state mRNA levels of IPPI (IPP isomerase) ([1]; HepG2 cells): induced the expression of IPP isomerase; also recorded: increase IPPI mRNA levels
- steady-state mRNA levels of GRP78/BiP and GADD153 [2]: also induced the steady-state mRNA levels of GRP78/BiP and GADD153

Compound: NC(CS)C(=O)O (racemic) [cysteine, DL-cysteine]
- expression of cholesterol biosynthetic enzymes (Northern analysis) [1]: no other amino acids, including thiol-containing methionine and cysteine, have significant effects
- steady-state mRNA levels of IPPI ([1]; HUVEC): only homocysteine and DTT significantly increased IPPI mRNA levels
- total cellular cholesterol normalized to protein (HASMC [3]): but not cysteine, increased cellular cholesterol
- steady-state mRNA levels of GRP78/BiP and GADD153 [2]: failed to induce the expression of these ER stress response genes
- overall cell number or viability (cultured cells): does not effect cell viability
- total cellular cholesterol normalized to protein (HepG2 cells [4]): but not cysteine, increased cellular cholesterol

Compound: NC(CCS)C(=O)O (racemic) [homocysteine, DL-homocysteine]
- IPPI mRNA levels ([1]; HASMC, 5 mM homocysteine): significantly increases IPPI mRNA levels
- IPPI mRNA levels ([1]; HUVEC, 5 mM homocysteine): significantly increases IPPI mRNA levels
- expression of cholesterol biosynthetic pathway genes, clusterin and SREBP ([1]; HUVEC, 1-5 mM homocysteine for as little as 2 hours): enhanced
- steady-state mRNA levels of IPPI ([1]; HUVEC): significantly increased IPPI mRNA levels
- IPPI mRNA levels ([1]; HepG2, 5 mM homocysteine): significantly increases IPPI mRNA levels
- steady-state mRNA levels of SREBP, HMG-CoA reductase and FPP synthase ([1]; HepG2 cells, 5 mM homocysteine, 0, 2, 4, 8 or 18 hours): increased steady-state mRNA levels for all transcripts
- steady-state mRNA levels of HMG-CoA reductase, IPP isomerase and FPP synthase [1, 9]: increased and peaked between 2 and 4 hr
- steady-state mRNA levels of SREBP-1 [1, 9]: increased and peaked between 2 and 4 h
- steady-state mRNA levels of IPPI (IPP isomerase) ([1]; HepG2 cells): induced the expression of IPP isomerase; also recorded: increase IPPI mRNA levels
- mRNA levels of acetyl CoA carboxylase, fatty acid synthase and LDL receptor ([1]; homocysteine treated HepG2 cells (data not shown)): also increased
- total cellular cholesterol normalized to protein (HASMC [3]): promotes cholesterol accumulation
- total cellular cholesterol normalized to protein (HASMC [3]; listed as Homocysteine): increased cellular cholesterol
- LDL binding/uptake (HepG2 cells [5]): may further enhance LDL binding; also recorded: enhanced LDL uptake
- LDL or AcLDL binding (HUVEC [6]; 4 hour pre-treatment with 5 mM homocysteine): no significant effect
- LDL and AcLDL binding/uptake (HUVEC [6]; 8 h incubation with 5 mM homocysteine): significant decrease in LDL and AcLDL binding; also recorded: significant decrease in LDL uptake; also recorded: similarly down-regulated
- total cellular cholesterol normalized to protein (HUVEC [7]): no significant change in the total cholesterol concentration; also recorded: unchanged
- active and precursor forms of SREBP-2 (SREBP-2): also increased
- steady-state mRNA levels of GRP78/BiP and GADD153 [2]: increased steady-state mRNA levels of GRP78/BiP and GADD153
- overall cell number or viability (cultured cells): no effect on overall cell number or viability; also recorded: does not effect cell viability
- EC injury (cultured cells; homocysteine concentrations up to 5 mM): do not cause EC injury
- GRP78/BiP and GRP94 protein levels (GRP78/BiP and GRP94): elevated
- levels of active (68 kDa) and precursor (125 kDa) forms of SREBP-1 (SREBP-1): increased levels of both active (68 kDa) and precursor (125 kDa) forms of SREBP-1
- total cellular cholesterol normalized to protein (HepG2 cells [4]): promotes cholesterol accumulation
- total cellular cholesterol normalized to protein (HepG2 cells [4]; listed as Homocysteine): increased cellular cholesterol
- LDL uptake (HASMC [8]; 5 mM homocysteine 8 hr): maintained their ability to endocytose LDL
- ability to bind LDL (HASMC [8]; after 18 h of incubation): no impairment

Compound: CNc1ccc2oc(C[C@H]3O[C@@]4(CC[C@H]3C)O[C@H]([C@H](C)C(=O)c3ccc[nH]3)[C@H](C)C[C@H]4C)nc2c1C(=O)O [A23187]
- expression of cholesterol biosynthetic enzymes (Northern analysis) [1]: induce the cholesterol biosynthetic pathway in a manner similar to that of homocysteine
- steady-state mRNA levels of IPPI (IPP isomerase) ([1]; HepG2 cells): induced the expression of IPP isomerase; also recorded: increase IPPI mRNA levels

Compound: C[C@@H]1C[C@@H]([C@H](O)CC2CC(=O)NC(=O)C2)C(=O)[C@@H](C)C1 [cycloheximide]
- effect on induction of cholesterol/triglyceride genes by homocysteine ([1]; data not shown): does not block the induction of these genes by homocysteine

Compound: NCC(=O)O [glycine]
- steady-state mRNA levels of IPPI ([1]; HUVEC): only homocysteine and DTT significantly increased IPPI mRNA levels
- steady-state mRNA levels of GRP78/BiP and GADD153 [2]: failed to induce the expression of these ER stress response genes

Compound: N[C@@H](CCO)C(=O)O [homoserine]
- steady-state mRNA levels of IPPI ([1]; HUVEC): only homocysteine and DTT significantly increased IPPI mRNA levels
- steady-state mRNA levels of GRP78/BiP and GADD153 [2]: failed to induce the expression of these ER stress response genes

Compound: CSCC[C@H](N)C(=O)O [methionine, L-methionine]
- expression of cholesterol biosynthetic enzymes (Northern analysis) [1]: no other amino acids, including thiol-containing methionine and cysteine, have significant effects
- steady-state mRNA levels of IPPI ([1]; HUVEC): only homocysteine and DTT significantly increased IPPI mRNA levels
- steady-state mRNA levels of GRP78/BiP and GADD153 [2]: failed to induce the expression of these ER stress response genes

Compound: OCCS [β-mercaptoethanol]
- steady-state mRNA levels of IPPI (IPP isomerase) ([1]; HepG2 cells): induced the expression of IPP isomerase; also recorded: increase IPPI mRNA levels

Compound: tunicamycin
- expression of cholesterol biosynthetic enzymes (Northern analysis) [1]: induce the cholesterol biosynthetic pathway in a manner similar to that of homocysteine
- steady-state mRNA levels of IPPI (IPP isomerase) ([1]; HepG2 cells): induced the expression of IPP isomerase; also recorded: increase IPPI mRNA levels
- steady-state mRNA levels of GRP78/BiP and GADD153 [2]: also induced the steady-state mRNA levels of GRP78/BiP and GADD153
